pIC50: −log10 of the molar value.
Biological target: TRKA (Homo sapiens (Human), UniProt P04629)
Test: Isolated TRK enzyme assay (HTRF KinEASE-TK), PV3144 TrkA enzyme assay
Type: biochemical
Conditions: arithmetic mean where more than one reading
Procedure, shortened: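 His-tagged TrkA cytoplasmic domain preactivated with ATP 20 min, then with compound 20 min at room temperature before 1 µM final biotin-TK substrate; HTRF 665/620 nm read.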

Sequence of TRKA (P04629 441-796): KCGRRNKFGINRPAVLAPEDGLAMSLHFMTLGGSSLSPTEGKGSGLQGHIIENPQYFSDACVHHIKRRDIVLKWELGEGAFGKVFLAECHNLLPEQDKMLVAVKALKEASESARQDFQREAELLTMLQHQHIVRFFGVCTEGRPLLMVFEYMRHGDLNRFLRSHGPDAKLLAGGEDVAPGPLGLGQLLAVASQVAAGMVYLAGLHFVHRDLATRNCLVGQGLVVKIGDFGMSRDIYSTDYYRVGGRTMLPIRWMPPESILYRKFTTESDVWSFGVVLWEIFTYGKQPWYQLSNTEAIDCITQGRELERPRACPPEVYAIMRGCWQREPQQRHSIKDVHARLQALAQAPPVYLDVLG

Compared with “N-(4-{[1-(propan-2-yl)-1H-pyrrolo[3,2-c]pyridin-3-yl]carbonyl}pyridin-2-yl)-2-[4-(trifluoromethoxy)phenyl]acetamide [Example 168]”, “N-(5-{[7-fluoro-1-(1-hydroxypropan-2-yl)-1H-pyrrolo[3,2-c]pyridin-3-yl]carbonyl}pyridin-3-yl)-2-[4-(trifluoromethyl)-1H-1,2,3-triazol-1-yl]acetamide [Example 214]” is 0.80 log units lower in pIC50: 7.83 for the first, 7.03 for the second. The first is the more potent here.

Substance “N-(5-{[7-fluoro-1-(1-hydroxypropan-2-yl)-1H-pyrrolo[3,2-c]pyridin-3-yl]carbonyl}pyridin-3-yl)-2-[4-(trifluoromethyl)phenyl]acetamide [Example 209]” has a pIC50 of 6.58.
